Measurements: patent publication EP4389751A1, “HETEROCYCLIC COMPOUNDS AND USES THEREOF” (Kumquat Biosciences Inc., priority 2021, dated 2024)
Read-outs that look alike come from different tables or passages of the source.

Tests used:
GP2D cells = assay: Cell proliferation assay (CellTiter-Glo), K-Ras G12D cells; format: cell-based; conditions: read-out: Inhibition of GP2D Cells (IC50)
Method: ASPC-1 (ATCC CRL-1682), Panc-10.05 (ATCC CRL-2547), A427, and GP2D (Sigma 95090714) cell lines comprise a G12D mutation and can be used to assess Ras cellular signaling in vitro, e.g., in response to the compounds herein. […] ASPC-1 culture medium is prepared with RPMI-1640 and 10% heat-inactivated FBS. Panc-10.05 culture medium is prepared with RPMI-1640, 10 Units/ml human recombinant insulin, and 10% FBS. A427 cell culture is prepared with RPMI-1640 and 10% heat-inactivated FBS. GP2D culture medium is prepared with DMEM with 2mM glutamine and 10% heat-inactivated FBS. A Cell Titer-Glo (CTG) luminescent based assay (Promega) is used to assess growth of the cells, as a measurement of the ability of the compounds herein to inhibit Ras signaling in the cells. The cells (e.g., 800 per well) are seeded in their respective culture medium in standard tissue culture-treated 384-well format plates (Falcon #08-772-116) or ultra-low attachment surface 384-well format plates (S-Bio # MS-9384UZ ). The day after plating, cells are treated with a dilution series (e.g., a 9 point 3-fold dilution series) of the compounds herein (e.g., approximately 40 µl final volume per well). Cell viability can be monitored (e.g., approximately 5 days later) according to the manufacturer's recommended instructions, where the CellTiter-Glo reagent is added (e.g., approximately 10 µl), vigorously mixed, covered, and placed on a plate shaker (e.g., approximately for 20 min) to ensure sufficient cell lysis prior to assessment of luminescent signal. The IC50 values are determined using the four parameter fit. The resulting IC50 value is a measurement of the ability of the compounds herein to reduce cell growth of Ras-driven cells (e.g., tumor cell lines) in vitro and/or in vivo.

K-Ras G12S = molecular target: T1, K-Ras G12S (Homo sapiens, UniProt P01116, G12S); assay: HTRF assay of the K-Ras / SOS1 interaction; format: biochemical; conditions: IC50 (against K-Ras G12D) to IC50 (against K-Ras G12S)
T1 construct: made in house; host or cells: E. coli (e.g., BL21 (DE3))
Source text: This assay can be also used to assess a selective inhibition or reduction of signaling output of a mutant Ras protein relative to a wildtype, or relative to a different mutant Ras protein. For example, the equilibrium interaction of wildtype Kras or K-Ras mutant (e.g., wildtype or a mutant thereof including those mentioned in Example 6) with SOS1 (e.g., hSOS1) can be assessed as a proxy or an indication for a subject compound's ability to bind and inhibit Ras protein. HTRF assay detects from (i) a fluorescence resonance energy transfer (FRET) donor (e.g., antiGST-Europium) that is bound to GST-tagged K-Ras mutant to (ii) a FRET acceptor (e.g., anti-6His-XL665) bound to a His-tagged hSOS 1.
The assay buffer can contain ~5 mM HEPES pH 7.4, -150 mM NaCI, - 1 mM DTT, 0.05% BSA and 0.0025% (v/v) Igepal. A Ras working solution is prepared in an assay buffer containing typically a suitable amount of the protein construct (e.g., GST-tagged K-Ras mutant) and the FRET donor (e.g., antiGST-Eu(K) from Cisbio, France). A SOS1 working solution is prepared in an assay buffer containing suitable amount of the protein construct (e.g., His-hSOS1) and the FRET acceptor (e.g., anti-6His-XL665 from Cisbio, France). A suitable amount of the protein construct will depend on the range of activity or range of IC50 values being detected or under investigation. For detecting IC50 within a range of 500 nM, the protein constructs of the same range of molarity can be utilized.
A fixed volume of DMSO with or without test compound is transferred into a 384-well plate. Ras working solution is added to all wells of the test plate. SOS1 working solution is added to all wells except for those that are subsequently filled the inhibitor control solution. Upon incubation for about 10 minutes or longer, the fluorescence is measured with a M1000Pro plate reader (Tecan) using HTRF detection (excitation 337nm, emission 1 : 620nm, emission 2: 665nm). Compounds are tested in duplicates at different concentrations (for example, 10 µM, 2.5 µM, 0.63 µM, 0.16 µM, 0.04 µM, 0.01 µM test compound). The ratiometric data (i.e., emission 2 divided by emission 1) is used to calculate IC50 values against Ras using GraphPad Prism (GraphPad software). Following this general procedure, samples were tested with or without a subject compound disclosed herein including compounds exemplified in Table 3 to assess their abilities to inhibit K-Ras G12S relative to another mutant (e.g., K-Ras G12D). Signaling output measured in terms of IC50 values can be obtained, a ratio of IC50 against one mutant relative to another mutant can be calculated. For instance, a selective reduction of K-Ras G12S signaling output can be evidenced by a ratio greater than one. In particular, a selective reduction of K-Ras G12S signaling relative to K-Ras G12D signaling is evidenced as the ratio of IC50 (against K-Ras G12D) to IC50 (against K-Ras G12S) is greater than 1. […]

T1 sequence (P01116 1-188 isoform P01116-2 G12S): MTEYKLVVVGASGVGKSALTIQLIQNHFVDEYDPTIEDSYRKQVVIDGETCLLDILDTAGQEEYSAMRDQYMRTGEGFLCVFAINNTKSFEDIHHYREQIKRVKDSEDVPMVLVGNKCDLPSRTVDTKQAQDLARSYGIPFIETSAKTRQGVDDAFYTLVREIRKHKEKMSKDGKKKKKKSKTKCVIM

Compound | IC50 (GP2D cells; GP2D cells (K-Ras G12D)) | Ratio of IC50 KRAS G12D vs. IC50 KRAS G12S (K-Ras G12S) | also measured
C#Cc1c(F)ccc2cc(O)cc(-c3ncc4c(N5CC6CCC(C5)N6C(=O)n5cncn5)nc(OC[C@@]56CCCN5C[C@H](F)C6)nc4c3F)c12 [Compound A234, (3-(7-(8-ethynyl-7-fluoro-3-hydroxynaphthalen-1-yl)-8-fluoro-2-(((2R,7aS)-2-fluorotetrahydro-1H-pyrrolizin-7a(5H)-yl)methoxy)pyrido[4,3-d]pyrimidin-4-yl)-3,8-diazabicyclo[3.2.1]octan-8-yl)(1H-1,2,4-triazol-1-yl)methanone] | ≤ 1000 nM | – | –
C#Cc1c(F)ccc2cc(O)cc(-c3ncc4c(N5CC6CCC(C5)N6C(=O)Nc5ncccn5)nc(OC[C@@]56CCCN5C[C@H](F)C6)nc4c3F)c12 [Compound A131, 3-(7-(8-ethynyl-7-fluoro-3-hydroxynaphthalen-1-yl)-8-fluoro-2-(((2R,7aS)-2-fluorotetrahydro-1H-pyrrolizin-7a(5H)-yl)methoxy)pyrido[4,3-d]pyrimidin-4-yl)-N-(pyrimidin-2-yl)-3,8-diazabicyclo[3.2. 1]octane-8-carboxamide] | ≤ 1000 nM | – | –
N#Cc1cnn(C(=O)N2C3CCC2CN(c2nc(OC[C@@]45CCCN4C[C@H](F)C5)nc4c(F)c(-c5ccc(F)c6sc(N)c(C#N)c56)ccc24)C3)c1 [Compound A176, 1-(3-(7-(2-amino-3-cyano-7-fluorobenzo[b]thiophen-4-yl)-8-fluoro-2-(((2R,7aS)-2-fluorotetrahydro-1H-pyrrolizin-7a(5H)-yl)methoxy)quinazolin-4-yl)-3,8-diazabicyclo[3.2. 1]octane-8-carbonyl)-1H-pyrazole-4-carbonitrile] | – | – | IC50 (GP2D cells; GP2d): 1000 to 10000 nM
N#Cc1c(N)sc2c(F)ccc(-c3c(Cl)cc4c(N5CC6CCC(C5)N6C(=O)n5ccnc5C#N)nc(OC[C@@]56CCCN5C[C@H](F)C6)nc4c3F)c12 [Compound A220, 1-(3-(7-(2-amino-3-cyano-7-fluorobenzo[b]thiophen-4-yl)-6-chloro-8-fluoro-2-(((2R,7aS)-2-fluorotetrahydro-1H-pyrrolizin-7a(5H)-yl)methoxy)quinazolin-4-yl)-3,8-diazabicyclo[3.2. 1]octane-8-carbonyl)-1H-imidazole-2-carbonitrile] | ≤ 1000 nM | – | –
N#Cc1c(N)sc2c(F)ccc(-c3c(Cl)cc4c(O[C@@H]5C[C@H]6CC[C@@H](C5)N6C(=O)n5cncn5)nc(OC[C@@]56CCCN5C[C@H](F)C6)nc4c3F)c12 [Compound A247, 4-(4-(((1R,3s,5S)-8-(1H-1,2,4-triazole-1-carbonyl)-8-azabicyclo[3.2.1]octan-3-yl)oxy)-6-chloro-8-fluoro-2-(((2R,7aS)-2-fluorotetrahydro-1H-pyrrolizin-7 a(5H)-yl)methoxy)quinazolin-7-yl)-2-amino-7-fluorobenzo[b]thiophene-3-carbonitrile] | – | – | IC50 (GP2D cells; GP2d): 1000 to 10000 nM
C#Cc1c(F)ccc2cc(O)cc(-c3ccc4c(N5CC6CCC(C5)N6C(=O)n5cncn5)nc(OC[C@@]56CCCN5C[C@H](F)C6)nc4c3F)c12 [Compound A281, (3-(7-(8-ethynyl-7-fluoro-3-hydroxynaphthalen-1-yl)-8-fluoro-2-(((2R,7aS)-2-fluorotetrahydro-1H-pyrrolizin-7a(5H)-yl)methoxy)quinazolin-4-yl)-3,8-diazabicyclo[3.2.1]octan-8-yl)(1H-1,2,4-triazol-1-yl)methanone] | ≤ 1000 nM | – | –
C#Cc1c(F)ccc2cccc(-c3ccc4c(N5CC6CCC(C5)N6C(=O)n5cncn5)nc(OC[C@@]56CCCN5C[C@H](F)C6)nc4c3F)c12 [Compound A229, (3-(7-(8-ethynyl-7-fluoronaphthalen-1-yl)-8-fluoro-2-(((2R,7aS)-2-fluorotetrahydro-1H-pyrrolizin-7a(5H)-yl)methoxy)quinazolin-4-yl)-3,8-diazabicyclo[3.2.1]octan-8-yl)(1H-1,2,4-triazol-1-yl)methanone] | – | – | IC50 (GP2D cells; GP2d): 1000 to 10000 nM
N#Cc1c(N)sc2c(F)ccc(-c3c(Cl)cc4c(N5CC6CCC(C5)N6C(=O)n5ncnc5C#N)nc(OC[C@@]56CCCN5C[C@H](F)C6)nc4c3F)c12 [Compound A246] | ≤ 1000 nM | – | –
Nc1nc2c(-c3c(Cl)cc4c(N5CC6(CCN(C(=O)n7cncn7)CC6)C5)nc(OC[C@@]56CCCN5C[C@H](F)C6)nc4c3F)ccc(F)c2s1 [Compound A292, (2-(7-(2-amino-7-fluorobenzo[d]thiazol-4-yl)-6-chloro-8-fluoro-2-(((2R,7aS)-2-fluorotetrahydro-1H-pyrrolizin-7a(5H)-yl)methoxy)quinazolin-4-yl)-2,7-diazaspiro[3.5]nonan-7-yl)(1H-1,2,4-triazol-1-yl)methanone] | – | A (A: indicates that the ratio of IC50 against KrasG12D vs. IC50 against KrasG12S is 1-fold or greater) | –
N#Cc1cccn1C(=O)N1CC2CCC(C1)N2c1nc(OC[C@@]23CCCN2C[C@H](F)C3)nc2c(F)c(-c3ccc(F)c4sc(N)nc34)c(Cl)cc12 [Compound A172, 1-(8-(7-(2-amino-7-fluorobenzo[d]thiazol-4-yl)-6-chloro-8-fluoro-2-(((2R,7aS)-2-fluorotetrahydro-1H-pyrrolizin-7a(5H)-yl)methoxy)quinazolin-4-yl)-3,8-diazabicyclo[3.2. 1]octane-3-carbonyl)-1H-pyrrole-2-carbonitrile] | – | A (A: indicates that the ratio of IC50 against KrasG12D vs. IC50 against KrasG12S is 1-fold or greater) | –
N#Cc1cnn(C(=O)N2C3CCC2CN(c2nc(OC[C@@]45CCCN4C[C@H](F)C5)nc4c(F)c(-c5cc(O)cc6ccccc56)ccc24)C3)c1 [Compound A120, 1-(3-(8-fluoro-2-(((2R,7aS)-2-fluorotetrahydro-1H-pyrrolizin-7a(5H)-yl)methoxy)-7-(3-hydroxynaphthalen-1-yl)quinazolin-4-yl)-3,8-diazabicyclo[3.2. 1]octane-8-carbonyl)-1H-pyrazole-4-carbonitrile] | – | A (A: indicates that the ratio of IC50 against KrasG12D vs. IC50 against KrasG12S is 1-fold or greater) | –
Cc1nc(C(C)C)nn1C(=O)N1CC2(CCCN(c3nc(OC[C@@]45CCCN4C[C@H](F)C5)nc4c(F)c(-c5ccc(F)c6sc(N)c(C#N)c56)c(Cl)cc34)C2)C1 [Compound A240, 2-amino-4-(6-chloro-8-fluoro-2-(((2R,7aS)-2-fluorotetrahydro-1H-pyrrolizin-7 a(5H)-yl)methoxy)-4-(2-(3-isopropyl-5-methyl-1H-1,2,4-triazole-1-carbonyl)-2,6-diazaspiro[3.5]nonan-6-yl)quinazolin-7-yl)-7-fluorobenzo[b]thiophene-3-carbonitrile] | – | A (A: indicates that the ratio of IC50 against KrasG12D vs. IC50 against KrasG12S is 1-fold or greater) | –
